Assay results from PubChem BioAssay AID256 (DTP/NCI, 2004).
Several values for one entry are separate records, joined by “and”; a condition that tells them apart may be missing. Equal values may be shown once. Toxic doses and inconclusive results are not listed.

Test system: CD2F1 mice, L1210 leukemia ip, survival T/C
Assay: NCI In Vivo Anticancer Drug Screen. Data for tumor model L1210 Leukemia (intraperitoneal) in CD2F1 (CDF1) mice
Details: endpoint: mean survival time, higher = longer survival
In short: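 Antitumor effect is scored in animals hosting a serially transplanted tumor. Values compare compound-dosed animals against vehicle-only controls as a simple quotient.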

[1] = dose: 100.0 mg/kg/injection, schedule: Q04DX003 (ip), vehicle: saline with Tween-80
[2] = dose: 400.0 mg/kg/injection, schedule: Q04DX003 (ip), vehicle: saline with Tween-80
[3] = dose: 100.0 mg/kg/injection, schedule: Q01DX001 (ip), vehicle: saline with Tween-80
[4] = dose: 200.0 mg/kg/injection, schedule: Q01DX001 (ip), vehicle: saline with Tween-80
[5] = dose: 400.0 mg/kg/injection, schedule: Q01DX001 (ip), vehicle: saline with Tween-80
[6] = dose: 100.0 mg/kg/injection, schedule: Q04DX002 (ip), vehicle: saline with Tween-80
[7] = dose: 200.0 mg/kg/injection, schedule: Q04DX003 (ip), vehicle: saline with Tween-80
[8] = dose: 12.5 mg/kg/injection, schedule: Q01DX009 (ip), vehicle: saline with Tween-80
[9] = dose: 50.0 mg/kg/injection, schedule: Q01DX009 (ip), vehicle: saline with Tween-80
[10] = dose: 100.0 mg/kg/injection, schedule: Q01DX009 (ip), vehicle: saline with Tween-80
[11] = dose: 200.0 mg/kg/injection, schedule: Q01DX009 (ip), vehicle: saline with Tween-80
[12] = dose: 200.0 mg/kg/injection, schedule: Q04DX002 (ip), vehicle: saline with Tween-80
[13] = dose: 400.0 mg/kg/injection, schedule: Q04DX002 (ip), vehicle: saline with Tween-80
[14] = dose: 12.5 mg/kg/injection, schedule: Q04DX003 (ip), vehicle: saline
[15] = dose: 25.0 mg/kg/injection, schedule: Q04DX003 (ip), vehicle: saline
[16] = dose: 12.5 mg/kg/injection, schedule: Q01DX009 (ip), vehicle: saline
[17] = dose: 100.0 mg/kg/injection, schedule: Q01DX001 (ip), vehicle: saline
[18] = dose: 400.0 mg/kg/injection, schedule: Q01DX001 (ip), vehicle: saline

## Nc1ncnc2c1ncn2CCNC(=S)Nc1ccccc1
dose: 6.25 mg/kg/injection, schedule: Q01DX005 (ip), vehicle: other
  T/C: 88 % of control
dose: 12.5 mg/kg/injection, schedule: Q01DX005 (ip), vehicle: other
  T/C: 92 % of control
dose: 25.0 mg/kg/injection, schedule: Q01DX005 (ip), vehicle: other
  T/C: 88 % of control
dose: 50.0 mg/kg/injection, schedule: Q01DX005 (ip), vehicle: other
  T/C: 92 % of control
dose: 100.0 mg/kg/injection, schedule: Q01DX005 (ip), vehicle: other
  T/C: 92 % of control

## Cc1cc(C)c(C)c(Br)c1
dose: 100.0 mg/kg/injection, schedule: Q01DX009 (ip), vehicle: saline sonified
  T/C: 95 % of control
[1]
  T/C: 100 % of control
[2]
  T/C: 102 % of control

## Cc1ccc(C)c(C(C)NC2=NCCO2)c1 (stereo not drawn)
dose: 12.5 mg/kg/injection, schedule: Q04DX003 (ip), vehicle: saline with Tween-80
  T/C: 94 % of control
dose: 25.0 mg/kg/injection, schedule: Q04DX003 (ip), vehicle: saline with Tween-80
  T/C: 93 % of control
dose: 50.0 mg/kg/injection, schedule: Q04DX003 (ip), vehicle: saline with Tween-80
  T/C: 86 % of control and 92 % of control
[1]
  T/C: 91 % of control

## O=C1C2CC=CCC2C(=O)C2CC=CCC12 (stereo not drawn)
[3]
  T/C: 92 % of control
[4]
  T/C: 92 % of control
[5]
  T/C: 101 % of control

## C=CC(=O)c1ccccc1
[6]
  T/C: 111 % of control

## CCCCOc1ccc(/C=N\N=C\c2ccc(OCCCC)cc2)cc1
[1]
  T/C: 88 % of control
[7]
  T/C: 91 % of control
[2]
  T/C: 86 % of control

## c1cc2c(c(NC3=NCCN3)c1)CCCC2
[8]
  T/C: 96 % of control
dose: 25.0 mg/kg/injection, schedule: Q01DX009 (ip), vehicle: saline with Tween-80
  T/C: 100 % of control
[9]
  T/C: 111 % of control

## O=C(O)/C(=C\c1cccc([N+](=O)[O-])c1)c1ccccc1
[3]
  T/C: 97 % of control
[10]
  T/C: 91 % of control and 107 % of control
[6]
  T/C: 100 % of control and 105 % of control
[1]
  T/C: 100 % of control
[4]
  T/C: 96 % of control
[11]
  T/C: 93 % of control
[12]
  T/C: 101 % of control and 103 % of control
[7]
  T/C: 100 % of control
[13]
  T/C: 90 % of control and 92 % of control
[2]
  T/C: 100 % of control

## O=[N+]([O-])c1ccc(N=Nc2ccc(N3CC3)c([N+](=O)[O-])c2)cc1
dose: 65.0 mg/kg/injection, schedule: Q01DX001 (ip), vehicle: Klucel (hydroxypropylcellulose) (HPC)
  T/C: 96 % of control
dose: 130.0 mg/kg/injection, schedule: Q01DX001 (ip), vehicle: Klucel (hydroxypropylcellulose) (HPC)
  T/C: 88 % of control
dose: 260.0 mg/kg/injection, schedule: Q01DX001 (ip), vehicle: Klucel (hydroxypropylcellulose) (HPC)
  T/C: 89 % of control

## CCOC(=O)/C(C#N)=N/Nc1ccc(Cl)cc1
[6]
  T/C: 108 % of control
[12]
  T/C: 100 % of control
[13]
  T/C: 92 % of control

## O=C(O)CC1C=CCC1 (stereo not drawn)
dose: 6.25 mg/kg/injection, schedule: Q04DX003 (ip), vehicle: saline
  T/C: 102 % of control
[14]
  T/C: 97 % of control
[15]
  T/C: 97 % of control
[1]
  T/C: 98 % of control

## O=[N+]([O-])C1CC=CCC1C(Cl)(Cl)Cl (stereo not drawn)
dose: 5.0 mg/kg/injection, schedule: Q01DX009 (ip), vehicle: saline with Tween-80
  T/C: 97 % of control
dose: 10.0 mg/kg/injection, schedule: Q01DX009 (ip), vehicle: saline with Tween-80
  T/C: 103 % of control

## CCCCCCCCCCS(=O)CC(CO)NC(=O)/C=C/c1c(C)[nH]c(=O)[nH]c1=O (stereo not drawn)
dose: 0.37 mg/kg/injection, schedule: Q01DX009 (ip), vehicle: distilled water + Tween-80
  T/C: 102 % of control and 106 % of control
dose: 0.75 mg/kg/injection, schedule: Q01DX009 (ip), vehicle: distilled water + Tween-80
  T/C: 110 % of control and 111 % of control
dose: 1.5 mg/kg/injection, schedule: Q01DX009 (ip), vehicle: distilled water + Tween-80
  T/C: 113 % of control and 101 % of control
dose: 3.0 mg/kg/injection, schedule: Q01DX009 (ip), vehicle: distilled water + Tween-80
  T/C: 114 % of control and 117 % of control
dose: 6.0 mg/kg/injection, schedule: Q01DX009 (ip), vehicle: distilled water + Tween-80
  T/C: 117 % of control
dose: 12.0 mg/kg/injection, schedule: Q01DX009 (ip), vehicle: distilled water + Tween-80
  T/C: 89 % of control and 96 % of control

## CCCCC(CC)(CO)C(=O)NN (stereo not drawn)
[1]
  T/C: 97 % of control
[7]
  T/C: 100 % of control
[2]
  T/C: 97 % of control

## Cc1ccc(S(=O)(=O)OCCc2ccccc2)cc1
[3]
  T/C: 97 % of control
[4]
  T/C: 97 % of control
[5]
  T/C: 94 % of control

## C[As](C)[Se]C1OC(CO)C(O)C(O)C1O (stereo not drawn)
[16]
  T/C: 103 % of control
[14]
  T/C: 94 % of control
dose: 25.0 mg/kg/injection, schedule: Q01DX009 (ip), vehicle: saline
  T/C: 100 % of control
[15]
  T/C: 97 % of control
dose: 50.0 mg/kg/injection, schedule: Q01DX009 (ip), vehicle: saline
  T/C: 102 % of control
dose: 50.0 mg/kg/injection, schedule: Q04DX003 (ip), vehicle: saline
  T/C: 100 % of control

## Cc1ccc(N=NN(C)C)cc1
dose: 18.75 mg/kg/injection, schedule: Q01DX009 (ip), vehicle: Klucel (hydroxypropylcellulose) (HPC)
  T/C: 118 % of control
dose: 75.0 mg/kg/injection, schedule: Q01DX009 (ip), vehicle: Klucel (hydroxypropylcellulose) (HPC)
  T/C: 152 % of control

## O=C(Nc1ccc(S(=O)(=O)N2CCCCC2)cc1)Oc1ccc([N+](=O)[O-])cc1
dose: 5.0 mg/kg/injection, schedule: Q01DX001 (ip), vehicle: other
  T/C: 97 % of control
dose: 10.0 mg/kg/injection, schedule: Q01DX001 (ip), vehicle: other
  T/C: 108 % of control
dose: 20.0 mg/kg/injection, schedule: Q01DX001 (ip), vehicle: other
  T/C: 100 % of control
dose: 40.0 mg/kg/injection, schedule: Q01DX001 (ip), vehicle: other
  T/C: 100 % of control
dose: 80.0 mg/kg/injection, schedule: Q01DX001 (ip), vehicle: other
  T/C: 96 % of control

## O=c1c2ccccc2nc2c3ccccc3nnn12
dose: 50.0 mg/kg/injection, schedule: Q04DX002 (ip), vehicle: saline with Tween-80
  T/C: 98 % of control
[6]
  T/C: 120 % of control
[12]
  T/C: 91 % of control

## O=[N+]([O-])c1ccccc1NCCO
[3]
  T/C: 101 % of control
[4]
  T/C: 98 % of control
[5]
  T/C: 102 % of control

## CC(=O)O.[Th]
[17]
  T/C: 92 % of control
[18]
  T/C: 92 % of control

## CC(C)(C)C(=O)/C(O)=C\c1ccccc1
[17]
  T/C: 105 % of control
dose: 200.0 mg/kg/injection, schedule: Q01DX001 (ip), vehicle: saline
  T/C: 100 % of control
[18]
  T/C: 98 % of control

## CCN(CC)CCN(C)C(O)(C(=O)c1ccccc1)C1CCCCC1 (stereo not drawn)
dose: 75.0 mg/kg/injection, schedule: Q01DX001 (ip), vehicle: saline
  T/C: 105 % of control
dose: 150.0 mg/kg/injection, schedule: Q01DX001 (ip), vehicle: saline
  T/C: 102 % of control
dose: 300.0 mg/kg/injection, schedule: Q01DX001 (ip), vehicle: saline
  T/C: 100 % of control

## Cc1ccc(CC(F)(F)F)cc1
[1]
  T/C: 100 % of control
[7]
  T/C: 100 % of control
[2]
  T/C: 108 % of control

## COc1cc(NS(C)(=O)=O)ccc1Nc1c2ccc(Cl)cc2nc2c(OC)cccc12
[8]
  T/C: 106 % of control
dose: 66.0 mg/kg/injection, schedule: Q04DX003 (ip), vehicle: saline with Tween-80
  T/C: 238 % of control
dose: 100.0 mg/kg/injection, schedule: Q04DX003 (ip), vehicle: saline sonified
  T/C: 168 % of control
[1]
  T/C: 273 % of control
dose: 150.0 mg/kg/injection, schedule: Q04DX003 (ip), vehicle: saline with Tween-80
  T/C: 88 % of control
dose: 200.0 mg/kg/injection, schedule: Q04DX003 (ip), vehicle: saline sonified
  T/C: 154 % of control

## COc1cccc(OC)c1OC(=O)Nc1c(Cl)cccc1Cl
[9]
  T/C: 96 % of control
[10]
  T/C: 92 % of control
[11]
  T/C: 105 % of control

## Clc1nc2n[nH]nc2nc1Cl
dose: 3.13 mg/kg/injection, schedule: Q01DX009 (ip), vehicle: saline
  T/C: 97 % of control
dose: 6.25 mg/kg/injection, schedule: Q01DX009 (ip), vehicle: saline
  T/C: 100 % of control
[16]
  T/C: 95 % of control
